Test results reported in patent US9999601B2, “Composition and method for inhibition of nerve transmission” (NEUROQUEST INC., priority 2007, dated 2018).
Entries after “also recorded” stand apart in the source; their conditions may differ.

Key:
[1] = biological target: delayed rectifier current (Ikv), specifically Ikv 1.5 subtype (Homo sapiens, UniProt P22460); assay: Whole cell patch clamp recordings (K+ channels); assay type: cell-based; conditions: for inhibition of delayed rectifying potassium channels (in words): 10 ppm (10 mcmol or 10 ppm); for percent inhibition of the delayed rectifier potassium current: at a concentration of Geranium oil that gave 40% inhibition; for inhibition of delayed rectifying potassium channels, comparison in words: concentration not given
delayed rectifier current (Ikv), specifically Ikv 1.5 subtype, sequence (P22460 whole entry): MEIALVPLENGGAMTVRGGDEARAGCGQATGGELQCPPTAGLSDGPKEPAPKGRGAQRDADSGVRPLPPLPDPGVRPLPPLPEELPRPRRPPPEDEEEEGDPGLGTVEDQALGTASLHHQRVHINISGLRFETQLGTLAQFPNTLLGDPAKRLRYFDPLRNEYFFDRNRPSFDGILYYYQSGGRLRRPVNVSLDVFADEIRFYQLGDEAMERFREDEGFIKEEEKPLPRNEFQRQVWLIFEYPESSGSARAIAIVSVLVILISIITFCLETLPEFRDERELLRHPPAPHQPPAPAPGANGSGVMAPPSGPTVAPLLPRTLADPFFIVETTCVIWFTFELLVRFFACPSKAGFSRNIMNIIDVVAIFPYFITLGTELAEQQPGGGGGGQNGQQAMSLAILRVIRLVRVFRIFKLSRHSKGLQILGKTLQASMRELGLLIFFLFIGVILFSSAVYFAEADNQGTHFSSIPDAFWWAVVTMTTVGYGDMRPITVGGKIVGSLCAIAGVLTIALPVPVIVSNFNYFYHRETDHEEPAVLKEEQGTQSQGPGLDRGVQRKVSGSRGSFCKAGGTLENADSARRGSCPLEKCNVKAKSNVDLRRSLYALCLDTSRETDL
Experimental: Whole cell patch clamp recordings (Axopatch 200B) were made using borosilicate patch pipettes of resistance 3-8 MΩ with an intracellular solution utilizing potassium chloride as the current carrier. Current clamp recording were conducted holding the membrane potential at −60 mV to characterize the firing property of the cells. Voltage clamp was performed to investigate the delayed rectifier current (Ikv), specifically Ikv 1.5 subtype. Statistical significance was assessed using ANOVA followed by Duncan's multiple-range test with P<0.05 taken as indicating significance. […] A synthetic blend of geranium oil containing proportions of geraniol and citronellol similar to natural geranium oil, but with other components removed, was compared to the following ratios of geraniol:citronellol; 2:8, 3:7, 4:6 and geranium oil. The synthetic blend of geranium oil gave a 50% inhibition of the delayed rectifying potassium channel current compared to a 40% inhibition for natural geranium oil.

[2] = system: mouse hippocampal brain slice neurons (cortical neuron); assay: Patch clamp electrophysiological studies of mouse hippocampal slices; assay type: cell-based; conditions: for inhibition of nerve transmission (in words): animal cortical nerve cells and dorsal root ganglion cells; for membrane currents, current-voltage relation (in words): bath-applied, 10 mV steps from −110 to −20 mV, FIG. 1, FIG. 2A-C
Experimental: Studies were conducted on mouse hippocampal brain slice preparations. In terms of the slice preparations, […] coronal brain slices were prepared from animals housed in a 12 hour light (ZT 0-12):12 hour dark (ZT 12-24) environment. Animals were anesthetized with isoflurane, decapitated, the brain rapidly removed and placed in ice cold, oxygenated (95% 02:5% C02), bicarbonate-buffered artificial cerebral spinal fluid (ACSF). A 1 cm^2 block of brain tissue containing the hippocampi was glued to a cutting surface and coronal slices were prepared using a Leica VT1000S microtome (Leica Microsystems). All slices were left to equilibrate for approximately one hour prior to the transfer to a recording chamber. Once transferred to the chamber, slices were continuously superfused with oxygenated ACSF at a rate of 3 ml/min @30° C. and recordings are generally made for the next 6-12 hours. Patch microelectrodes (5-8MΩ) made from borosilicate glass (Garner Glass Co.) and filled with K^+based internal patch solution composed of: (in mM) 120 K-acetate, 40 HEPES, 10 EGTA, 6 MgCl2, nystatin (450 μg/ml) or gramicidin B (5 μg/ml) and pluronic acid F127.
The perforated patch recording technique and will be used (Korn & Horn, 1989) and viable Hippocampal neurons were visually targeted using Infrared Differential Interference Contrast (IR-DIC) microscopy using a Leica DM LFSA scope. […] Recordings were made from 3 different patch rigs equipped with either […] patch clamp amplifiers interfaced via a Digidata 1322A to a PC computer or on, in terms of the studies performed on dissociated DRG neurons, a Zeiss Axoscop 200 inverted microscope equipped with an Axopatch 200B/Digidata 1322A using Pclamp 9.0 and Axoscope 9 software.
Test compounds were bath-applied by superfusion to examine for changes in excitability and/or attenuation of ion channels and the effects of compounds on evoked synaptic responses. Stimulating electrodes (concentric or bipolar) were placed within the slices and in accordance with the well known fiber tract pathways of passage for the
Superimposed responses to a series of 10 mV steps (250 ms) ranged from −110 to −20 mV are shown, (A) in control condition, (B) in presence of geraniol, and (C) after washout of the drug.
Typical response of a cortical neuron following a depolarizing current pulse of 0.4 nA is shown in FIGS. 2D, 2E and 2F, (D) in control condition, (E) in presence of geraniol, and (F) after recovery.
Mean current-voltage plots for 6 cortical neurons are plotted in FIG. 1.
Samples 1, 2 and 6 are examples of naturally-derived geranium oils; sample 3 is the synthetic composition as set out in Table 1, sample 4 is pure geraniol, sample 5 is pure citronellol and sample 4+5 is 50:50 (by volume) combination of geraniol and citronellol. Net current represents the difference between current measured in control condition and in presence of tested compound, in response to the same voltage step.

post herpetic neuralgia = assay: Case study, post herpetic neuralgia, topical pure geraniol; assay type: in vivo, human; conditions: over 30 minutes after topical application; one subject
From the text: person, Ht 68 inches, Weight 162 lb. BMI 24.7. History of shingles 4 years prior to study with residual pain (post herpetic neuralgia). The subject tried Neurontin™ (Pfizer, U.S.) for 1 week with only some help and quit 3-4 years prior to this study.
They had moderate pain that made it hard to concentrate on things other than the pain. […] They could sleep, but had to keep changing positions to do so. They described the post-herpetic neuralgia as the worst thing to have happened to […]. The subject's pain decreased by 78% with pure geraniol over the course of 30 minutes after topical application as measured on a standard visual analog scale.

post-herpetic neuralgia = assay: Human screening of synthetic geranium oil and geraniol in neuropathic pain (post-herpetic neuralgia); assay type: in vivo; conditions: topical pure geraniol, human neuropathic pain sufferers
Experimental: A synthetic blend of geranium oil (Table 1) was also tested in a panel of human neuropathic pain sufferers known to respond to naturally derived geranium oil. The geranium oil was topically applied in therapeutically effective amounts to areas of the human body affected with symptoms of neuropathic pain. Dosage amounts depended on the size of the patient's affected areas. […] Once administered, a typical positive response is a significant reduction in pain, often in minutes. A significant number of patients in the panel of neuropathic pain sufferers preferred the pain relieving effects of the synthetic blend of geranium oil, with known purified constituents, over the natural geranium oil.
Since natural geranium oil relieves neuropathic pain and inhibits the delayed rectifying potassium channel, and since synthetic geranium oil, geraniol, and citronellol all inhibit the delayed rectifying potassium channel, synthetic geranium oil and geraniol were tested on patients with post-herpetic neuralgia. A synthetic blend of geranium oil was tested in patients with post-herpetic neuralgia that were positive responders to natural geranium oil. […] Pure geraniol was then tested in these subjects.

SMILES	inhibition of delayed rectifying potassium channels (in words) [1]	percent inhibition of the delayed rectifier potassium current [1] [%]	inhibition of nerve transmission (in words) [2]	inhibition of delayed rectifying potassium channels, comparison in words [1]	further results
CC(C)=CC1CC(C)CCO1 (centres unmarked) [rose oxide, Rose Oxide]	positive	14			
C=CC(C)(O)CCC=C(C)C (centres unmarked) [linalool, Linalool]	positive	18			
C=C(C)C1CC=C(C)C(=O)C1 (centres unmarked) [carvone, Carvone]	positive	22			
CC(C)=CCCC(C)CCO (centres unmarked) [citronellol, 3,7-dimethyloct-6-en-1-ol]	positive	27	effectively inhibit nerve transmission	highest amount of inhibition; also recorded: highest activity	
CC(C)=CCC/C(C)=C/CO [geraniol, 2,6-Octadien-1-ol, 3,7-dimethyl-, (2E)-]	positive	26	effectively inhibit nerve transmission	highest amount of inhibition; also recorded: highest activity	decrease of pain on visual analog scale (post herpetic neuralgia): 78%; membrane currents, current-voltage relation (in words) [2]: reduction in the membrane current amplitude; also recorded: reduction of membrane currents; membrane currents, current-voltage relation (in words) ([2]; listed as geraniol (test compound #4)): reduction of membrane currents; membrane currents, current-voltage relation (in words) ([2]; listed as sample #4 (Geraniol)): reduction of membrane currents; net current reduction, rank among tested samples ([2]; most negative voltage step (−110 mV), FIG. 3): greatest inhibition; action potentials (in words) ([2]; voltage steps or depolarizing current pulse of 0.4 nA, FIG. 2): inhibition of action potential; neuropathic pain relief (in words) (post-herpetic neuralgia): almost immediate pain relief; also recorded: greatest effect on neuropathic pain relief
CC(C)[C@@H]1CC[C@@H](C)CC1=O [menthone, Menthone]	positive	22			
